Reference: patent US7875644B2, “1-acyldihydropyrazole derivatives” (Merck Patent GmbH, priority 2005, dated 2011)

Molecular target: T1, Met kinase (Homo sapiens, UniProt P08581)
T1 construct: 6His (N); purchased Upstate 14-526; host or cells: Sf21 insect cells (S. frugiperda), baculovirus
Assay: Met kinase inhibition, flashplate method
Assay type: biochemical
Conditions: 33P-ATP, substrate pAGLT, 3 hrs at room temperature
Text: According to the manufacturer's data (Met, active, upstate, catalogue No. 14-526), Met kinase is expressed for the purposes of protein production in insect cells (Sf21; S. frugiperda) and subsequent affinity-chromatographic purification as “N-terminal 6His-tagged” recombinant human protein in a baculovirus expression vector.
The test plates used are 96-well Flashplate^R microtitre plates from Perkin Elmer (Cat. No. SM P200). The components of the kinase reaction described below are pipetted into the assay plate. The Met kinase and the substrate poly Ala-Glu-Lys-Tyr, (pAGLT, 6:2:5:1), are incubated for 3 hrs at room temperature with radioactively labelled ^33P-ATP in the presence and absence of test substances in a total volume of 100 μl. The reaction is terminated using 150 μl of a 60 mM EDTA solution. After incubation for a further 30 min at room temperature, the supernatants are filtered off with suction, and the wells are washed three times with 200 μl of 0.9% NaCl solution each time. The measurement of the bound radioactivity is carried out by means of a scintillation measuring instrument (Topcount NXT, Perkin-Elmer).
The full value used is the inhibitor-free kinase reaction. This should be approximately in the range 6000-9000 cpm. The pharmacological zero value used is staurosporin in a final concentration of 0.1 mM. The inhibitory values (IC50) are determined using the RS1_MTS program.
Kinase reaction conditions per well: • 30 μl of assay buffer • 10 μl of substance to be tested in assay buffer with 10% of DMSO • 10 μl of ATP (final concentration 1 μM cold, 0.35 μCi of ^33P-ATP) • 50 μl of Met kinase/substrate mixture in assay buffer; • (10 ng of enzyme/well, 50 ng of pAGLT/well) • Solutions used: • Assay buffer: • 50 mM HEPES • 3 mM magnesium chloride • 3 μM sodium orthovanadate • 3 mM manganese(II) chloride • 1 mM dithiothreitol (DTT) • pH=7.5 (to be set using sodium hydroxide) • Stop solution: • 60 mM Titriplex III (EDTA) • ^33P-ATP: Perkin-Elmer; • Met kinase: Upstate, Cat. No. 14-526, Stock 1 μg/10 μl; spec. activity 954 U/mg; • Poly-Ala-Glu-Lys-Tyr, 6:2:5:1:Sigma Cat. No. P1152

T1 sequence (P08581 974-1390 limits assumed): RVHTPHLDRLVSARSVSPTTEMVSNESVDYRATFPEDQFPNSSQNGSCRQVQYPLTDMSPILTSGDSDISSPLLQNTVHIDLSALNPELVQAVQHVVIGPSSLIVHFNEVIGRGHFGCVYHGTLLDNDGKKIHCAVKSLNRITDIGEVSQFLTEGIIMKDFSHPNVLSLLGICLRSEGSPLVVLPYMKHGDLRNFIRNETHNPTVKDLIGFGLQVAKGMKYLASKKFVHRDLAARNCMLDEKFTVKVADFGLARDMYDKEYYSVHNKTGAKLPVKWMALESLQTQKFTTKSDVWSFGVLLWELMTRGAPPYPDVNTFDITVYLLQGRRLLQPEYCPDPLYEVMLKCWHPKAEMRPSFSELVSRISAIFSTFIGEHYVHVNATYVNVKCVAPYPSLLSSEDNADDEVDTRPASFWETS

In order of rising IC50:
1. O=C(Nc1cccc(CC(=O)N2CCC(c3cc(Cl)ccc3Cl)=N2)c1)OCCCN1CCOCC1 [Compound A154, 3-morpholin-4-ylpropyl (3-{2-[3-(2,5-dichlorophenyl)-4,5-dihydro-1H-pyrazol-1-yl]-2-oxoethyl}phenyl)carbamate]  2.5 nM
2. O=C(Cc1ccc2[nH]cnc2c1)N1CCC(c2cc(Cl)ccc2O)=N1 [Compound A108, 1-[2-(1H-Benzimidazol-5-yl)acetyl]-3-(3-chloro-6-hydroxyphenyl)-4,5-dihydro-1H-pyrazole]  3 nM
3. CC(C(=O)N1CCC(c2cc(Cl)ccc2O)=N1)c1ccc(O)cc1 (stereo not drawn) [Compound A120, 3-(3-Chloro-6-hydroxyphenyl)-1-[2-(4-hydroxy-phenyl)propionyl]-4,5-dihydro-1H-pyrazole]  3.6 nM
4. CN(C)CCCOC(=O)Nc1cccc(CC(=O)N2CCC(c3cc(Cl)ccc3Cl)=N2)c1 [Compound A153, 3-Dimethylaminopropyl (3-{2-[3-(2,5-dichlorophenyl)-4,5-dihydro-1H-pyrazol-1-yl]-2-oxoethyl}phenyl)carbamate]  8 nM
5. CC(C(=O)N1CCC(c2ccc3c(c2)CNC(=O)N3)=N1)c1ccc(O)cc1 (stereo not drawn) [Compound A100, 3-(2-Oxo-3,4-dihydro-1H-quinazolin-6-yl)-1-[2-(4-hydroxyphenyl)propionyl]-4,5-dihydro-1H-pyrazole]  9 nM
6. COc1ccc(C2=NN(C(=O)Cc3ccc4nsnc4c3)CC2)c(OC)c1 [Compound A1, 1-(benzo-1,2,5-thiadiazol-5-ylmethylcarbonyl)-3-(2,4-dimethoxyphenyl)-4,5-dihydro-1H-pyrazole]  320 nM
7. O=C(Cc1cccc(O)c1)N1CCC(c2ccc(F)cc2)=N1 [Compound A31, 1-(3-Hydroxybenzylcarbonyl)-3-(4-fluorophenyl)-4,5-dihydro-1H-pyrazole]  330 nM
8. O=C(Cc1ccc2nsnc2c1)N1CCC(c2ccc(F)cc2)=N1 [Compound A2, 1-(benzo-1,2,5-thiadiazol-5-ylmethylcarbonyl)-3-(4-fluorophenyl)-4,5-dihydro-1H-pyrazole]  610 nM
9. COc1ccc(C2=NN(C(=O)Cc3cccc(O)c3)CC2)c(OC)c1 [Compound A30, 1-(3-Hydroxybenzylcarbonyl)-3-(2,4-dimethoxy-phenyl)-4,5-dihydro-1H-pyrazole]  990 nM
